The subject of one data set is Escherichia coli. The data set is described as follows: microbe, parasite or virus in culture.
The target of data set [1] is T1, High affinity choline transporter 1 (Homo sapiens, UniProt Q9GZV3).
T1 sequence (Q9GZV3 whole entry): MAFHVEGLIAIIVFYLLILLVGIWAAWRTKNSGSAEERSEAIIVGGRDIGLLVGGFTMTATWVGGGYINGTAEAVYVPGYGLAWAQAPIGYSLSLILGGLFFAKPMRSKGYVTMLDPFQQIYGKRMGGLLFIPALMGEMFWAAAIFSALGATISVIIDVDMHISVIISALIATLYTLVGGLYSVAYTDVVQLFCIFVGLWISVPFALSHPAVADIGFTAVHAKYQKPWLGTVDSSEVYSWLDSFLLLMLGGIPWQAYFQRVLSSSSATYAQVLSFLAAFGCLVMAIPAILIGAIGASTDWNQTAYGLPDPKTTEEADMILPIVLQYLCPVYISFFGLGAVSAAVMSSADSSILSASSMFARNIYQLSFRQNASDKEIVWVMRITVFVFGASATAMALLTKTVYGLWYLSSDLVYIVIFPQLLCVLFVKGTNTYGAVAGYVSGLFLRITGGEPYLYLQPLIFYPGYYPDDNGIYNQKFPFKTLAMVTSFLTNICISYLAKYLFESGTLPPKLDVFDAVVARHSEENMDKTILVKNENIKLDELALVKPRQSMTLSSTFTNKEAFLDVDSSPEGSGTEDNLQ
The data set is described as follows: human choline transporter blockers, potency – cell-based, 5-point CRC, membrane potential dye, dose response (AID 504840). The class given is functional.

Another data set concerns the target Cytochrome P450 2C19 (Homo sapiens, UniProt P33261). In words: Cytochrome panel assay with activity outcomes. Panel member name: p450-cyp2c19 Compounds with AC50 equal or less than 10 uM are considered active. Format: functional. The following applies: read-out: AC50.
A further data set concerns the target Cytochrome P450 2C9 (Homo sapiens, UniProt P11712).
For data set [2], the target named is Dual specificity tyrosine-phosphorylation-regulated kinase 1A (Rattus norvegicus, UniProt Q63470). Format: biochemical, Homo sapiens.
The subject of data set [3] is HEK293. In words: cells. The class given is functional, cell-based. The following applies: Homo sapiens.
Data set [4] concerns HEK293. The data set is described as follows: cells. The following applies: Homo sapiens.
Data set [5] deals with HEK293. The data set is described as follows: inhibition of NOD1-driven NF-kB reporter – cell-based, luminescence, uHTS, primary screen (AID 1578). The class given is functional. The following applies: Homo sapiens.
In data set [6] the test system is HEK293. The data set is described as follows: cells. Format: functional, cell-based. The following applies: Homo sapiens. This is another data set of the same source.
Another data set addresses Tumor necrosis factor (Homo sapiens, UniProt P01375). In words: analog potency on TNFa NF-kB signaling – cell-based, revised, SAR follow-up (AID 2337). Format: functional.
Data set [7] deals with T2, Heat shock factor protein 1 (Mus musculus, UniProt P38532).
T2 sequence (P38532 whole entry): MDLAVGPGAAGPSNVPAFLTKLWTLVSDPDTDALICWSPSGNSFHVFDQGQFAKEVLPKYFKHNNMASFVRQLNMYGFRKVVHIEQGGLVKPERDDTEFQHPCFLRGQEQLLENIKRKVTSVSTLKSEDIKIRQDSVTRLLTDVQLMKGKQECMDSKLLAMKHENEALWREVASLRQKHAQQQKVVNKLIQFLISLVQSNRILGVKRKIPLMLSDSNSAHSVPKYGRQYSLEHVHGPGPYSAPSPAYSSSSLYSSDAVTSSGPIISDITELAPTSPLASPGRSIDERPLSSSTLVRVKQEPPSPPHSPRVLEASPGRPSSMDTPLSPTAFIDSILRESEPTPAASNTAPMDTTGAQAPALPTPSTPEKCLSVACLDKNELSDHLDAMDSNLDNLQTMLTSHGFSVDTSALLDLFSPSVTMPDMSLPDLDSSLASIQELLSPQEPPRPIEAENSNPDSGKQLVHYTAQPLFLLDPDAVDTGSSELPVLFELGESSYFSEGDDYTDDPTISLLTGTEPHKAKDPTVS
The data set is described as follows: decrease of HSF1-responsive luciferase luminescence – cell-based, NIH3T3, dose retest, confirmation (AID 2382).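 Note: NIH3T3 fibroblasts with HSF1-driven luciferase reporter stressed by proteasome inhibitor MG132; luminescence from HSF1-driven luciferase expression after 8 hours of MG132 stress.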 The class given is functional.

Data set [8] addresses T3, Nucleotide-binding oligomerization domain-containing protein 1 (Homo sapiens, UniProt Q9Y239).
T3 sequence (Q9Y239 whole entry): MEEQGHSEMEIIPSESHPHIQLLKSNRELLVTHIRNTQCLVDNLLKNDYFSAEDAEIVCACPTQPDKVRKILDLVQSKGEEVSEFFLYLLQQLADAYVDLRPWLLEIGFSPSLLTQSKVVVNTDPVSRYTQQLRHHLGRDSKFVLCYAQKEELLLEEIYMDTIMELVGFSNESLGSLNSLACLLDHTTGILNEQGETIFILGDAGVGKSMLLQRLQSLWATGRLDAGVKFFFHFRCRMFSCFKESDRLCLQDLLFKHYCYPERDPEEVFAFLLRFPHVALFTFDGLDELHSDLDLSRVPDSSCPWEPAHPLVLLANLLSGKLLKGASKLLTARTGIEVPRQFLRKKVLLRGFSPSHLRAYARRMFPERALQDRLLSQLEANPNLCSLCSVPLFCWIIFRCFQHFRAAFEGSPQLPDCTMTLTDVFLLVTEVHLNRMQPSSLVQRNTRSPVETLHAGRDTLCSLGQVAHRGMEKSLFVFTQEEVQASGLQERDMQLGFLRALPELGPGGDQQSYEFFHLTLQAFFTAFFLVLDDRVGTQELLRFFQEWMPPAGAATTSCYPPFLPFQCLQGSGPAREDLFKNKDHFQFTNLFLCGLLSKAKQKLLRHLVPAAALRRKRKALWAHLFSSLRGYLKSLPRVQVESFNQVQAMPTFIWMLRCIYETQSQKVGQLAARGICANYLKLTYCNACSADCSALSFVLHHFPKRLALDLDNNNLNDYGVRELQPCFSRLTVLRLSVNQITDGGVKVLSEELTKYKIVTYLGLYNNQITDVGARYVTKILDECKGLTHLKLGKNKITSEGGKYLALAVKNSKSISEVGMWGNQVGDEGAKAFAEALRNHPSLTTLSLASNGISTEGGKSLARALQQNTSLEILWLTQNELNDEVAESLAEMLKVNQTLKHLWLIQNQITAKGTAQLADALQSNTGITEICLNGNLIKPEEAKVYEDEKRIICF
In words: blockers of NOD1 pathway activity – revised, SAR follow-up (AID 2333). The class given is functional.

For data set [9], the system named is HEK293. In words: NOD2 signaling inhibitors in MDP-stimulated cells, cell-based, uHTS, luminescence (AID 2001). The following applies: Homo sapiens. Format: functional.
The target in data set [10] is Nucleotide-binding oligomerization domain-containing protein 2 (Homo sapiens, UniProt Q9HC29). The data set is described as follows: inhibition of NOD2-driven NF-kB reporter – cell-based, luminescence, uHTS, HEK293 (AID 1566). Format: functional.
Data set [11] concerns HEK293. The data set is described as follows: cells. Format: functional, cell-based. The following applies: Homo sapiens. The source holds these as a separate data set.
The nature of data set [12]: HEK-293T viability loss after treatment – luminescence, T-cell screen hits, cytotoxicity control for TCR NF-kB inhibitor project, dose response (AID 489026).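 Note: cells exposed to compound about 14 hours before the viability readout.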 Format: functional, cell-based.

Drawing on ChEMBL document CHEMBL1201862, “PubChem BioAssay data set” (2004), this text covers AC50, IC50 and EC50 for five compounds.

Active and inactive are the calls of the source.

The AC50 is the midpoint of the concentration-response curve, whichever way the signal moves. One may read the IC50 as the concentration at which inhibition is half-maximal. One may read the EC50 as the concentration at which the effect is half-maximal.

Cytochrome P450 2C9, sequence (P11712 whole entry): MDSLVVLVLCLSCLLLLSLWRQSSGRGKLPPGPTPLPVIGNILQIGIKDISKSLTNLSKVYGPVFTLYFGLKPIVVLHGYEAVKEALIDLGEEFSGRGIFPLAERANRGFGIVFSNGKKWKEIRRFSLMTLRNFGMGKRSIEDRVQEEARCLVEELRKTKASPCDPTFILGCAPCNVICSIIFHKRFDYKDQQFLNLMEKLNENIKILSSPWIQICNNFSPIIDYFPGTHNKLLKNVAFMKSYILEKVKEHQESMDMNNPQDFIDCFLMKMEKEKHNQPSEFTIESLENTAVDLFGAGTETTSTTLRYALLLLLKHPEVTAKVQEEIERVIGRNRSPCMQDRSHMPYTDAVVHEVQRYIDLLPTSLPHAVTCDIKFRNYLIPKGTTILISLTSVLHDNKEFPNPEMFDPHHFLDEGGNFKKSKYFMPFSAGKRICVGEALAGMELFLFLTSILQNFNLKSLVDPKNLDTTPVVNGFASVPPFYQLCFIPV
Nucleotide-binding oligomerization domain-containing protein 2, sequence (Q9HC29 whole entry, the tested form may be a part): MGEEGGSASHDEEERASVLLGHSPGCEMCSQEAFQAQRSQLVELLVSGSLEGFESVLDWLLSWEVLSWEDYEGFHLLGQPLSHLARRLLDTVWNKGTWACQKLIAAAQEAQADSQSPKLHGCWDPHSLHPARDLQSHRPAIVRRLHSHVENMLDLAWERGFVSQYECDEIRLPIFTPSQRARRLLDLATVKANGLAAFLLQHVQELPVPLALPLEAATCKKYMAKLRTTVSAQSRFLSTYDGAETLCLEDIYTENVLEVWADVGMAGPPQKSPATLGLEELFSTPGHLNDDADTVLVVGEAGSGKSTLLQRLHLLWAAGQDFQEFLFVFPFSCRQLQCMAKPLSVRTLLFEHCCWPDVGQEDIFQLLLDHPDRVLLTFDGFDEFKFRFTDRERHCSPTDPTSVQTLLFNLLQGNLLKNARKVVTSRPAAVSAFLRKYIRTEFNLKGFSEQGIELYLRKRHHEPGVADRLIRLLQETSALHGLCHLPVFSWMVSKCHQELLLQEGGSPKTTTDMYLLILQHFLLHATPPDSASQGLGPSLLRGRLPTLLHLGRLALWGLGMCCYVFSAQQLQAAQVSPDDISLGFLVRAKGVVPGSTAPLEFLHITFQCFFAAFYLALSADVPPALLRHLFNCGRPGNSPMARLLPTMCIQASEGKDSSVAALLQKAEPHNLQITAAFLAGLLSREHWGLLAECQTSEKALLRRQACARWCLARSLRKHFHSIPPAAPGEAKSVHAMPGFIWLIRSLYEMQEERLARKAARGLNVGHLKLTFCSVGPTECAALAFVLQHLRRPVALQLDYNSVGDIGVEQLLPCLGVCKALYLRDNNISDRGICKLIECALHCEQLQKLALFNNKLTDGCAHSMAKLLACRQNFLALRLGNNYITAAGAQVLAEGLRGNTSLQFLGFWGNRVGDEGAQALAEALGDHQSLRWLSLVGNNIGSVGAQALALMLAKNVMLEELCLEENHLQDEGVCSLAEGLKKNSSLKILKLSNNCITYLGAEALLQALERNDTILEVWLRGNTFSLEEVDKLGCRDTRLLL
Cytochrome P450 2C19, sequence (P33261 whole entry): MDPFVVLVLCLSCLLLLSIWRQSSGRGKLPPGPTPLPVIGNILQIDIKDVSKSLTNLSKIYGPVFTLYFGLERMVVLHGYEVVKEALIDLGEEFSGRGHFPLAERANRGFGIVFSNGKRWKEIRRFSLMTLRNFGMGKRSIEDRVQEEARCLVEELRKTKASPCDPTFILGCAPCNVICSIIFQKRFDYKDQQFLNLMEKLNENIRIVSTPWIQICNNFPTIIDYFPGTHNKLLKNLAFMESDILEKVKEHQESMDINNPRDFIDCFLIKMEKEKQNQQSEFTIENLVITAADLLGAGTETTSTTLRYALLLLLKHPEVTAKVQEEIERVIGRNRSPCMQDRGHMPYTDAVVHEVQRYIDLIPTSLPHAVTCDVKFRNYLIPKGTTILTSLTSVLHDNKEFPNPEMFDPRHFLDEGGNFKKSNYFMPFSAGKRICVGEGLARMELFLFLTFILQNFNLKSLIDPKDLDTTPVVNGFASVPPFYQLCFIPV
Tumor necrosis factor, sequence (P01375 whole entry): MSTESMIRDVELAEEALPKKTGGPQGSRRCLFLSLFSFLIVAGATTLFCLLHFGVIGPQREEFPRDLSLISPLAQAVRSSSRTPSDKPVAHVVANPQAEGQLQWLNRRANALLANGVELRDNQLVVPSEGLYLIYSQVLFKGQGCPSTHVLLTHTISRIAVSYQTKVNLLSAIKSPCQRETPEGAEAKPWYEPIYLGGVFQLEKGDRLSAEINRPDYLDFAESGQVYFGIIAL

In the case of `COc1ccc(C(=O)Nc2cnn(Cc3ccc(Cl)cc3)c2)cc1OC`, the AC50 in the data set with Escherichia coli was 96.5 µM (active).
Take `CCCn1c2ccccc2c2cnn(CC(=O)NCCCN3CCCC(C)C3)c(=O)c21` (configuration not stated): the IC50 in data set [1] is 15.1 µM (active).
Take `NC1=NC(=O)/C(=C/c2cccs2)S1`: the values for the AC50 (at Cytochrome P450 2C19; on Cytochrome P450 2C9; in [2]) were 25.1 µM (inconclusive), “inconclusive” and 1.21 µM (active), respectively.
With `Cc1ccc2c(CC(=O)Nc3ccc(N4CCN(C)CC4)cc3C)coc2c1`, in the data set on Escherichia coli, the AC50 was 43.5 µM (active).
As for `Cc1ccc2oc(N=C(N)NC(=O)C(C)(C)C)nc2c1`, the IC50 with HEK293 [3] was > 20 µM (inactive); in the data set with HEK293 [4], > 20 µM (inactive); in the data set on HEK293 [6], < 0.312 µM (active); at Tumor necrosis factor, < 0.0391 µM (active); in [8], 0.0949 µM (active); in the data set on HEK293 [9], 4.71 µM (active). The IC50 is > 20 µM (inactive) with HEK293 [11] and > 80 µM (inactive) in [12]. Moreover, the figures for the EC50 (with HEK293 [5]; in data set [7]; in data set [10]) were < 0.31 µM (inactive), < 0.16 µM (active) and 0.01 µM (active), respectively.
